Experimental data from patent publication US20240226115A1, “AXL INHIBITOR COMPOUNDS” (ARCUS BIOSCIENCES, INC., priority 2021, published 2024).

Legend:
Axl = target: T1, Axl (Homo sapiens, UniProt P30530); experiment: HTRF KinEASE-TK biochemical potency, AXL; design: purchased Invitrogen; details: 5 nM AXL, 700 μM ATP
T1 sequence (P30530 26-894): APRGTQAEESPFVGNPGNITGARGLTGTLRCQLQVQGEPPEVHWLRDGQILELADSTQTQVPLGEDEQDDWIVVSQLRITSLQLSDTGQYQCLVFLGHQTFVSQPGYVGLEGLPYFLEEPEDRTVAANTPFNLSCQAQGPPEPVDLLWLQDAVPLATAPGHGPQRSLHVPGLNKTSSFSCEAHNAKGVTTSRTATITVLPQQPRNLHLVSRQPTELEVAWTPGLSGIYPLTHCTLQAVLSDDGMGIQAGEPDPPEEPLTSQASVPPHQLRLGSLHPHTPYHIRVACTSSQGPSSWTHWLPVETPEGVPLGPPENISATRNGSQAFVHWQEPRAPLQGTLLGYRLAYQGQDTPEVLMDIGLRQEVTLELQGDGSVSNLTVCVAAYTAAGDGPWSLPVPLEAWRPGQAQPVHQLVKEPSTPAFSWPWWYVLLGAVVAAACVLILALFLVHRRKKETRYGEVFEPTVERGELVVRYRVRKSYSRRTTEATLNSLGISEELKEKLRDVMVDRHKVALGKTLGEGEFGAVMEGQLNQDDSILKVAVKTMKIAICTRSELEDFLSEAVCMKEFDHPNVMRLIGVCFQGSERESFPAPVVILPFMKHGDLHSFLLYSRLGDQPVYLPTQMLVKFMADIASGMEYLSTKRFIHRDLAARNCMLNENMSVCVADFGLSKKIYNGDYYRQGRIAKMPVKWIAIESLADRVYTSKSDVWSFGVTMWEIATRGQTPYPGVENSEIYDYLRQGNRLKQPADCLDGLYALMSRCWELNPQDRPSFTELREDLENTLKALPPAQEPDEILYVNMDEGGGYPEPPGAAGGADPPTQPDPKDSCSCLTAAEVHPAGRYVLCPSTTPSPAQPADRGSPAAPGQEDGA
Procedure, shortened: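 Enzyme preincubated with compound 1 h at RT; final 5 nM AXL or 1 nM TYRO3/MER, 800 nM TK substrate-biotin, 700 μM ATP, HEPES pH 7.4, MgCl2, 1% DMSO, 2 h at RT. HTRF 665/620 ratio read after streptavidin-XL665/cryptate antibody detection; percent activity relative to DMSO and pre-stopped controls.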

recombinant human MER = target: T2, recombinant human MER (Homo sapiens, UniProt Q12866); experiment: HTRF KinEASE-TK biochemical potency, MER; details: 1 nM MER, 700 μM ATP
T2 construct: purchased Invitrogen
T2 sequence (Q12866 21-999): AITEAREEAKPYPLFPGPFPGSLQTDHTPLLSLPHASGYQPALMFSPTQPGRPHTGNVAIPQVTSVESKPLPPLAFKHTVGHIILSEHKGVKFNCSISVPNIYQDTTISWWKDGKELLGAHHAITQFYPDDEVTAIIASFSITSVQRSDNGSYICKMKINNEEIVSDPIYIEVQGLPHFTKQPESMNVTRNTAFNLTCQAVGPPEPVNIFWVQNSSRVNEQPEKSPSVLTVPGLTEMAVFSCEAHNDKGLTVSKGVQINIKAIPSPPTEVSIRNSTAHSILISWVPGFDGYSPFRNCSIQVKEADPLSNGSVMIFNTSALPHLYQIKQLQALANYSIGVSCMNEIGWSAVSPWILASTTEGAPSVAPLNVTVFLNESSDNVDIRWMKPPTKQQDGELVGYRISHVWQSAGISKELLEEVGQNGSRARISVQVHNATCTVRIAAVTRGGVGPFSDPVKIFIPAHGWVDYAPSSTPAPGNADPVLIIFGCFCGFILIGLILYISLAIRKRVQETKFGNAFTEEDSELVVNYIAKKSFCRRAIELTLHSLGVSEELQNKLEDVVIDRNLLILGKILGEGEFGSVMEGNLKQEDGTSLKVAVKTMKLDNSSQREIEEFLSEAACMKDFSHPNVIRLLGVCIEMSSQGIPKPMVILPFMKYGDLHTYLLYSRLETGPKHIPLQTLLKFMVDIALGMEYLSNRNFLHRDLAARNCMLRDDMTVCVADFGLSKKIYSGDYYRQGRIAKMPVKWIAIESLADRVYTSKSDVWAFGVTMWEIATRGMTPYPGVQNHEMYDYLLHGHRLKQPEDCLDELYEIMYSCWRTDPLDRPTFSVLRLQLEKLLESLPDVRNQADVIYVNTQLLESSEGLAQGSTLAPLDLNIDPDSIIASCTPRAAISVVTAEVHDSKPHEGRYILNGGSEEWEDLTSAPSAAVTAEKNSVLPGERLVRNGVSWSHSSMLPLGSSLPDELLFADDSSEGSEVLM
Procedure: Purified recombinant human AXL, TYRO3 and MER proteins were purchased from Invitrogen™. 10 nM AXL, 2 nM TYRO3 or MER were incubated with varying concentrations of compounds in 50 mM HEPES, pH 7.4, 10 mM MgCl2, 0.01% BSA, 1 mM DTT and 2% DMSO in a total volume of 20 μl in a 384-well microplate (Corning™ #3640) at RT for 1 h. The AXL, TYRO3 and MER enzymatic reaction was initiated by transferring 10 μl of enzyme and compound mixture into 10 μl of 1.6 μM TK Substrate-biotin (HTRF® KinEASE-TK kit, Cisbio) and 1400 μM ATP pre-incubated in 50 mM HEPES, pH 7.4, 10 mM MgCl2, 0.01% BSA, 1 mM DTT in a 384-well microplate (Corning™ #3640) at RT, giving the final reaction conditions: 5 nM AXL, 1 nM TYRO3 or MER, 800 nM TK Substrate-biotin and 700 μM ATP in 50 mM HEPES, pH 7.4, 10 mM MgCl2, 0.01% BSA, 1 mM DTT and 1% DMSO with varying concentrations of compounds. Following 2 h incubation at RT, the AXL, TYRO3 and MER enzymatic reaction was stopped by transfer of 10 μl of reaction into 10 μl of detection mix (400 nM Streptavidin-XL665, 200-fold dilution TK Antibody-Cryptate and detection buffer, HTRF® KinEASE-TK kit, Cisbio) in a white 384-well microplate (Perkin Elmer, OptiPlate 384). After 1 h incubation at RT, the plate was put into a plate reader (Evision) to read at 665/620 nm (acceptor/donor) for HTRF. The value of the DMSO blank (MIN inhibition=100% activity) was used as a negative control. The positive control was established by adding 5 μl of enzyme and DMSO mixture into 10 μl of detection mix followed by addition of 5 μl of TK Substrate-biotin and ATP mixture (MAX inhibition=0% activity). To calculate the percent activity, Equation 1 was used. Ratio665/620 is the value at a given compound concentration: […]

| IC50 (Axl) [nM] | IC50 (recombinant human MER) [nM] | SMILES |
| --- | --- | --- |
| < 100 | 100 to 1000 | O=C1NCCOc2cc(-c3n[nH]c4ncc(-c5ccc6c(c5)CNCC6)cc34)ccc21 [Example 55, 8-(5-(1,2,3,4-Tetrahydroisoquinolin-7-yl)-1H-pyrazolo[3,4-b]pyridin-3-yl)-3,4-dihydrobenzo[f][1,4]oxazepin-5(2H)-one] |
| < 100 | 100 to 1000 | C[C@@H]1CCCN1C1CCc2ccc(-c3cnc4[nH]nc(-c5ccc6c(c5)OCCC6(C)O)c4c3)cc2CC1 (stereo partly drawn) [Example 29, 4-Methyl-7-(5-{7-[(2R)-2-Methylpyrrolidin-1-yl]-6,7,8,9-tetrahydro-5H-benzo[7]annulen-2-yl}-1H-pyrazolo[3,4-b]pyridin-3-yl)-3,4-dihydro-2H-1-benzopyran-4-ol] |
| < 100 | < 100 | O=C1NCCOc2cc(-c3n[nH]c4ncc(-c5ccc6c(c5)CCC(N5CCC5)CC6)cc34)ccc21 (centres unmarked) [Example 52, 8-(5-(7-(Azetidin-1-yl)-6,7,8,9-tetrahydro-5H-benzo[7]annulen-2-yl)-1H-pyrazolo[3,4-b]pyridin-3-yl)-3,4-dihydrobenzo[f][1,4]oxazepin-5(2H)-one] |
| < 100 | < 100 | C[C@@H]1CCCN1C1CCc2ccc(-c3cnc4[nH]nc(-c5ccc6c(c5)OCC5(CCC5)NC6=O)c4c3)cc2CC1 (stereo partly drawn) [Example 37, 8-(5-{7-[(2R)-2-Methylpyrrolidin-1-yl]-6,7,8,9-tetrahydro-5H-benzo[7]annulen-2-yl}-1H-pyrazolo[3,4-b]pyridin-3-yl)-4,5-dihydro-2H-spiro[1,4-benzoxazepine-3,1′-cyclobutan]-5-one] |
| < 100 | < 100 | O=C1NCCOc2cc(-c3n[nH]c4ncc(-c5ccc6c(c5)CCC(N[C@@H]5CCOC5)CC6)cc34)ccc21 (stereo partly drawn) [Example 46, 8-[5-(7-{[(3R)—Oxolan-3-yl]amino}-6,7,8,9-tetrahydro-5H-benzo[7]annulen-2-yl)-1H-pyrazolo[3,4-b]pyridin-3-yl]-2,3,4,5-tetrahydro-1,4-benzoxazepin-5-one] |
| < 100 | < 100 | C[C@@H]1CCCN1C1(C)CCc2ccc(-c3cnc4[nH]nc(-c5ccc6c(c5)OCCNC6=O)c4c3)cc2CC1 (stereo partly drawn) [Example 23, 8-(5-{7-Methyl-7-[(2R)-2-methylpyrrolidin-1-yl]-6,7,8,9-tetrahydro-5H-benzo[7]annulen-2-yl}-1H-pyrazolo[3,4-b]pyridin-3-yl)-2,3,4,5-tetrahydro-1,4-benzoxazepin-5-one] |
| < 100 | < 100 | C[C@@H]1CCCN1C1CCc2ccc(-c3cnc4[nH]nc(-c5ccc6c(c5F)OCCNC6=O)c4c3)cc2CC1 (stereo partly drawn) [Example 60, 9-Fluoro-8-(5-{7-[(2R)-2-methylpyrrolidin-1-yl]-6,7,8,9-tetrahydro-5H-benzo[7]annulen-2-yl}-1H-pyrazolo[3,4-b]pyridin-3-yl)-2,3,4,5-tetrahydro-1,4-benzoxazepin-5-one] |
| < 100 | < 100 | O=C1NCCOc2cc(-c3n[nH]c4ncc(-c5ccc6c(c5)CCN(C(=O)C5CC5)CC6)cc34)ccc21 [Example 17, 8-[5-(3-Cyclopropanecarbonyl-2,3,4,5-tetrahydro-1H-3-benzazepin-7-yl)-1H-pyrazolo[3,4-b]pyridin-3-yl]-2,3,4,5-tetrahydro-1,4-benzoxazepin-5-one] |
| < 100 | < 100 | CC1(C)NS(=O)(=O)c2cc(-c3n[nH]c4ncc(-c5ccc6c(c5)CCC(N5CCC[C@@H]5CO)CC6)cc34)ccc21 (stereo partly drawn) [Example 34, 6-(5-{7-[(2R)-2-(Hydroxymethyl)pyrrolidin-1-yl]-6,7,8,9-tetrahydro-5H-benzo[7]annulen-2-yl}-1H-pyrazolo[3,4-b]pyridin-3-yl)-3,3-dimethyl-2,3-dihydro-1λ^6,2-benzothiazole-1,1-dione] |
| < 100 | 100 to 1000 | O=C1NCCOc2cc(-c3n[nH]c4ncc(-c5ccc6c(c5)CCC(N5CC[C@@H](O)C5)CC6)cc34)ccc21 (stereo partly drawn) [Example 51, 8-(5-(7-((R)-3-Hydroxypyrrolidin-1-yl)-6,7,8,9-tetrahydro-5H-benzo[7]annulen-2-yl)-1H-pyrazolo[3,4-b]pyridin-3-yl)-3,4-dihydrobenzo[f][1,4]oxazepin-5(2H)-one] |
| < 100 | < 100 | O=C1NCCOc2cc(-c3n[nH]c4ncc(-c5ccc6c(c5)CC(N5CCCC5)CC6)cc34)ccc21 (centres unmarked) [Example 3, 8-{5-[7-(Pyrrolidin-1-yl)-5,6,7,8-tetrahydronaphthalen-2-yl]-1H-pyrazolo[3,4-b]pyridin-3-yl}-2,3,4,5-tetrahydro-1,4-benzoxazepin-5-one] |
| < 100 | < 100 | O=C1NCCOc2cc(-c3n[nH]c4ncc(-c5ccc6c(c5)CCC(N[C@H]5CCOC5)CC6)cc34)ccc21 (stereo partly drawn) [Example 45, 8-[5-(7-{[(3S)—Oxolan-3-yl]amino}-6,7,8,9-tetrahydro-5H-benzo[7]annulen-2-yl)-1H-pyrazolo[3,4-b]pyridin-3-yl]-2,3,4,5-tetrahydro-1,4-benzoxazepin-5-one] |
| < 100 | < 100 | O=C1NCCOc2cc(-c3n[nH]c4ncc(-c5ccc6c(c5)CCC(N5CCC[C@H]5CO)CC6)cc34)ccc21 (stereo partly drawn) [Example 50, 8-(5-{7-[(2S)-2-(Hydroxymethyl)pyrrolidin-1-yl]-6,7,8,9-tetrahydro-5H-benzo[7]annulen-2-yl}-1H-pyrazolo[3,4-b]pyridin-3-yl)-2,3,4,5-tetrahydro-1,4-benzoxazepin-5-one] |
